According to patent US4735959A, “Carboxylic acid amides and pharmaceutical compositions containing them” (Dr. Karl Thomae GmbH, priority 1981, dated 1988):
Read-outs that look alike come from different tables or passages of the source.

Test system: blood-sugar
Test: Blood-sugar lowering activity in starved female rats after oral administration
Format: in vivo
Conditions: for change in vivo at 1 mg/kg / change in vivo at 5 mg/kg / change in vivo at 0.6 mg/kg / change in vivo at 10 mg/kg: Rattus norvegicus, po, read-out: Blood-sugar lowering activity, percent as compared with the controls; for change in vivo at 0.6 mg/kg: 0.6 mg/kg orally; for change in vivo at 10 mg/kg: 10 mg/kg orally (footnote *)
Procedure: The blood-sugar lowering activity of the test compounds was determined in home-bred female rats with weights of from 180 to 220 grams. Twenty-four hours before starting the test the animals were starved. Before the test the compounds were suspended in 1.5% methyl cellulose and administered to the animals by means of an esophageal tube.
Blood was taken from the retroorbital plexus vein before administration of the test compounds as well as each of 1, 2, 3, and 4 hours after administration. Fifty microliters of each sample were deproteinized with 0.5 ml of 0.33N perchloric acid and centrifuged. The glucose content was determined in the supernatant according to the Hexokinase method by means of an analysis photometer. The statistical evalulation was performed with the t-test according to Student with p=0.05.

[1] = 1 mg/kg orally, 1 hour, n.s. = not statistically significant
[2] = 1 mg/kg orally, 2 hours, n.s. = not statistically significant
[3] = 1 mg/kg orally, 3 hours, n.s. = not statistically significant
[4] = 1 mg/kg orally, 4 hours, n.s. = not statistically significant
[5] = 5 mg/kg orally, 1 hour, n.s. = not statistically significant
[6] = 5 mg/kg orally, 2 hours, n.s. = not statistically significant
[7] = 5 mg/kg orally, 3 hours, n.s. = not statistically significant
[8] = 5 mg/kg orally, 4 hours, n.s. = not statistically significant
[9] = 3 hours, n.s. = not statistically significant
[10] = 4 hours, n.s. = not statistically significant

## CC(NC(=O)Cc1ccc(C(=O)O)cc1)c1ccccc1N1CCCCC1 (single isomer, unassigned; (+)) [AU, (+)-4-[(1-(2-Piperidino-phenyl)-1-ethyl)-aminocarbonylmethyl]-benzoic acid]
[1]
  change in vivo at 1 mg/kg: -41%
[2]
  change in vivo at 1 mg/kg: -22%
[3]
  change in vivo at 1 mg/kg: -17%
[4]
  change in vivo at 1 mg/kg: -15%

## CCCC(NC(=O)Cc1ccc(C(=O)O)cc1)c1ccccc1N1CCCCC1 (single isomer, unassigned; (+)) [K, (+)-4-[(1-(2-Piperidino-phenyl)-1-butyl)-aminocarbonylmethyl]-benzoic acid]
[1]
  change in vivo at 1 mg/kg: -41%
[2]
  change in vivo at 1 mg/kg: -43%
[3]
  change in vivo at 1 mg/kg: -38%
[4]
  change in vivo at 1 mg/kg: -31%

## CCCC(NC(=O)Cc1ccc(C(=O)OCC)cc1)c1ccccc1N1CCCCC1 (single isomer, unassigned; (+)) [L, (+)-4-[(1-(2-Piperidino-phenyl)-1-butyl)-aminocarbonylmethyl]-benzoic acid ethyl ester]
[4]
  Blood-sugar lowering activity, percent as compared with the controls: n.s.
[1]
  change in vivo at 1 mg/kg: -14%
[2]
  change in vivo at 1 mg/kg: -18%
[3]
  change in vivo at 1 mg/kg: -14%
[5]
  change in vivo at 5 mg/kg: -42%
[6]
  change in vivo at 5 mg/kg: -45%
[7]
  change in vivo at 5 mg/kg: -31%
[8]
  change in vivo at 5 mg/kg: -22%

## O=C(Cc1ccc(C(=O)O)cc1)NC(c1ccccc1)c1ccccc1N1CCCCC1 (single isomer, unassigned; (-)) [AW, (-)-4-[(2-Piperidino-benzhydryl)-aminocarbonylmethyl]-benzoic acid]
1 hour
  change in vivo at 0.6 mg/kg: -40%
2 hours
  change in vivo at 0.6 mg/kg: -34%
3 hours
  change in vivo at 0.6 mg/kg: -31%
4 hours
  change in vivo at 0.6 mg/kg: -26%

## O=C(Cc1ccc(C(=O)O)cc1)NC(c1cccc(Cl)c1)c1ccccc1N1CCCCC1 (stereo not drawn) [AF, 4-[(α-(3-Chloro-phenyl)-2-piperidino-benzyl)-aminocarbonylmethyl]-benzoic acid]
[3]
  Blood-sugar lowering activity, percent as compared with the controls: n.s.
[4]
  Blood-sugar lowering activity, percent as compared with the controls: n.s.
[1]
  change in vivo at 1 mg/kg: -17%
[2]
  change in vivo at 1 mg/kg: -19%
[5]
  change in vivo at 5 mg/kg: -43%
[6]
  change in vivo at 5 mg/kg: -39%
[7]
  change in vivo at 5 mg/kg: -30%
[8]
  change in vivo at 5 mg/kg: -26%

## O=C(Cc1ccc(C(=O)O)cc1)NC(c1ccncc1)c1ccccc1N1CCCCC1 (stereo not drawn) [AH, 4-[(2-Piperidino-α-(4-pyridyl)-benzyl)-aminocarbonylmethyl]-benzoic acid]
[3]
  Blood-sugar lowering activity, percent as compared with the controls: n.s.
[4]
  Blood-sugar lowering activity, percent as compared with the controls: n.s.
[8]
  Blood-sugar lowering activity, percent as compared with the controls: n.s.
[1]
  change in vivo at 1 mg/kg: -26%
[2]
  change in vivo at 1 mg/kg: -14%
[5]
  change in vivo at 5 mg/kg: -41%
[6]
  change in vivo at 5 mg/kg: -37%
[7]
  change in vivo at 5 mg/kg: -20%

## O=C(Cc1ccc(C(=O)O)cc1)NC(c1ccccc1)c1c(Cl)cccc1N1CCCCC1 (stereo not drawn) [AJ, 4-[(6-Chloro-α-phenyl-2-piperidino-benzyl)-aminocarbonylmethyl]-benzoic acid]
[1]
  change in vivo at 1 mg/kg: -35%
[2]
  change in vivo at 1 mg/kg: -34%
[3]
  change in vivo at 1 mg/kg: -28%
[4]
  change in vivo at 1 mg/kg: -20%
[5]
  change in vivo at 5 mg/kg: -44%
[6]
  change in vivo at 5 mg/kg: -40%
[7]
  change in vivo at 5 mg/kg: -39%
[8]
  change in vivo at 5 mg/kg: -40%

## O=C(O)C=Cc1ccc(CC(=O)NC(c2ccccc2)c2ccccc2N2CCCCC2)cc1 (stereo not drawn) [AK, 4-[(α-Phenyl-2-piperidino-benzyl)-aminocarbonylmethyl]-cinnamic acid]
[1]
  change in vivo at 1 mg/kg: -32%
[2]
  change in vivo at 1 mg/kg: -19%
[3]
  change in vivo at 1 mg/kg: -10%
[4]
  change in vivo at 1 mg/kg: -17%
1 hour
  change in vivo at 10 mg/kg: -48%
2 hours
  change in vivo at 10 mg/kg: -47%
[9]
  change in vivo at 10 mg/kg: -40%
[10]
  change in vivo at 10 mg/kg: -45%

## O=C(O)CCc1ccc(CC(=O)NC(c2ccccc2)c2ccccc2N2CCCCC2)cc1 (stereo not drawn) [AL, 3-{4-[(α-Phenyl-2-piperidino-benzyl)-aminocarbonylmethyl]-phenyl}-propionic acid]
[1]
  change in vivo at 1 mg/kg: -40%
[2]
  change in vivo at 1 mg/kg: -31%
[3]
  change in vivo at 1 mg/kg: -23%
[4]
  change in vivo at 1 mg/kg: -12%
1 hour
  change in vivo at 10 mg/kg: -43%
2 hours
  change in vivo at 10 mg/kg: -41%
[9]
  change in vivo at 10 mg/kg: -38%
[10]
  change in vivo at 10 mg/kg: -34%

## O=C(Cc1ccc(C(=O)O)cc1)NC(c1ccccc1)c1ccc(Cl)cc1N1CCCCC1 (stereo not drawn) [AM, 4-[(4-Chloro-α-phenyl-2-piperidino-benzyl)-aminocarbonylmethyl]-benzoic acid]
[3]
  Blood-sugar lowering activity, percent as compared with the controls: n.s.
[4]
  Blood-sugar lowering activity, percent as compared with the controls: n.s.
[1]
  change in vivo at 1 mg/kg: -11%
[2]
  change in vivo at 1 mg/kg: -13%
[5]
  change in vivo at 5 mg/kg: -34%
[6]
  change in vivo at 5 mg/kg: -35%
[7]
  change in vivo at 5 mg/kg: -32%
[8]
  change in vivo at 5 mg/kg: -29%

## Cc1cccc(N2CCCCC2)c1C(NC(=O)Cc1ccc(C(=O)O)cc1)c1ccccc1 (stereo not drawn) [AN, 4-[(6-Methyl-α-phenyl-2-piperidino-benzyl)-aminocarbonylmethyl]-benzoic acid]
[3]
  Blood-sugar lowering activity, percent as compared with the controls: n.s.
[4]
  Blood-sugar lowering activity, percent as compared with the controls: n.s.
[1]
  change in vivo at 1 mg/kg: -27%
[2]
  change in vivo at 1 mg/kg: -24%
[5]
  change in vivo at 5 mg/kg: -39%
[6]
  change in vivo at 5 mg/kg: -35%
[7]
  change in vivo at 5 mg/kg: -27%
[8]
  change in vivo at 5 mg/kg: -26%

## Cc1ccc(C(NC(=O)Cc2ccc(C(=O)O)cc2)c2ccccc2)c(N2CCCCC2)c1 (stereo not drawn) [AO, 4-[(4-Methyl-α-phenyl-2-piperidino-benzyl)-aminocarbonylmethyl]-benzoic acid]
[2]
  change in vivo at 1 mg/kg: -17%
[3]
  change in vivo at 1 mg/kg: -15%
[4]
  change in vivo at 1 mg/kg: -11%
[5]
  change in vivo at 5 mg/kg: -37%
[6]
  change in vivo at 5 mg/kg: -34%
[7]
  change in vivo at 5 mg/kg: -32%
[8]
  change in vivo at 5 mg/kg: -31%

## O=Cc1ccc(CC(=O)NC(c2ccccc2)c2ccccc2N2CCCCC2)cc1 (stereo not drawn) [AP, 4-[(α-Phenyl-2-piperidino-benzyl)-aminocarbonylmethyl]-benzaldehyde]
[1]
  change in vivo at 1 mg/kg: -26%
[2]
  change in vivo at 1 mg/kg: -28%
[3]
  change in vivo at 1 mg/kg: -22%
[4]
  change in vivo at 1 mg/kg: -17%

## CC1CCCCN1c1ccccc1C(NC(=O)Cc1ccc(C(=O)O)cc1)c1ccccc1 (stereo not drawn) [AQ, 4-[(2-(2-Methyl-piperidino)-α-phenyl-benzyl)-aminocarbonylmethyl]-benzoic acid]
[3]
  Blood-sugar lowering activity, percent as compared with the controls: n.s.
[4]
  Blood-sugar lowering activity, percent as compared with the controls: n.s.
[1]
  change in vivo at 1 mg/kg: -16%
[2]
  change in vivo at 1 mg/kg: -11%
[5]
  change in vivo at 5 mg/kg: -32%
[6]
  change in vivo at 5 mg/kg: -31%
[7]
  change in vivo at 5 mg/kg: -24%
[8]
  change in vivo at 5 mg/kg: -19%

## CC1CCCN(c2ccccc2C(NC(=O)Cc2ccc(C(=O)O)cc2)c2ccccc2)C1 (stereo not drawn) [AR, 4-[(2-(3-Methyl-piperidino)-α-phenyl-benzyl)-aminocarbonylmethyl]-benzoic acid]
[3]
  Blood-sugar lowering activity, percent as compared with the controls: n.s.
[4]
  Blood-sugar lowering activity, percent as compared with the controls: n.s.
[1]
  change in vivo at 1 mg/kg: -13%
[2]
  change in vivo at 1 mg/kg: -9%
[5]
  change in vivo at 5 mg/kg: -35%
[6]
  change in vivo at 5 mg/kg: -30%
[7]
  change in vivo at 5 mg/kg: -29%
[8]
  change in vivo at 5 mg/kg: -31%

## O=C(Cc1ccc(C(=O)O)cc1)NC(c1ccccc1)c1cccc(Cl)c1N1CCCCC1 (stereo not drawn) [AS, 4-[(3-Chloro-α-phenyl-2-piperidino-benzyl)-aminocarbonylmethyl]-benzoic acid]
[3]
  Blood-sugar lowering activity, percent as compared with the controls: n.s.
[4]
  Blood-sugar lowering activity, percent as compared with the controls: n.s.
[1]
  change in vivo at 1 mg/kg: -21%
[2]
  change in vivo at 1 mg/kg: -13%
[5]
  change in vivo at 5 mg/kg: -45%
[6]
  change in vivo at 5 mg/kg: -44%
[7]
  change in vivo at 5 mg/kg: -42%
[8]
  change in vivo at 5 mg/kg: -32%

## CC/C=C(\NC(=O)Cc1ccc(C(=O)OCC)cc1)c1ccccc1N1CCCCC1 [B, (Z)-4-[(1-(2-Piperidino-phenyl)-1-buten-1-yl)-aminocarbonylmethyl]-benzoic acid ethyl ester]
[1]
  change in vivo at 1 mg/kg: -39%
[2]
  change in vivo at 1 mg/kg: -19%
[3]
  change in vivo at 1 mg/kg: -26%
[4]
  change in vivo at 1 mg/kg: -30%
[5]
  change in vivo at 5 mg/kg: -44%
[6]
  change in vivo at 5 mg/kg: -39%
[7]
  change in vivo at 5 mg/kg: -26%
[8]
  change in vivo at 5 mg/kg: -35%
